We go through five compounds from patent US6800418B2, “Fluorine-containing photosensitive polymer having hydrate structure and resist composition comprising the same” (Samsung Electronics, priority 2001, dated 2004).

The data set can be described thus: Measurement of pKa Value. Type of data set: physicochemical. The settings on record: pKa value of monomers, measured to identify whether the structure is dissolvable in developers. Here is the method: To determine whether a repeating monomer unit of a polymer according to the present invention has a structure dissolvable in common developers, pKa value was measured.
The pKa value was measured for a variety of monomers having different structures to identify whether hydrate is dissolvable in developers.
As usually defined, the pKa is the negative logarithm of the acid dissociation constant. In the case of `C=C(C)C(=O)O` [MONOMER 3], the pKa stood at 4.58.
The same measure for `OC(CC1CC2C=CC1C2)(C(F)(F)F)C(F)(F)F` (centres unmarked) [MONOMER 4]: 9.67; for `C=Cc1ccc(C(O)(C(F)(F)F)C(F)(F)F)cc1` [MONOMER 5]: 8.96; for `OC(C1CC2C=CC1C2)C(F)(F)C(O)(O)C(F)(F)F` (centres unmarked) [MONOMER 6]: 8.33.
As to `C=Cc1ccc(O)cc1` [MONOMER 2, vinylphenol], the pKa was 9.97.
